Results as given in patent US8969004B2, “Detection of immobilized nucleic acid” (Life Technologies Corporation, priority 2004, dated 2015).
“Also recorded” adds a separate entry of the source. Like-named read-outs stand apart in the source and are kept apart here.

What was measured:
DNA in a 1% agarose gel = test: Detection of DNA separated and immobilized in an agarose gel; details: for ability to detect nucleic acid immobilized in a gel by electrophoresis: excited with UV light, about 300 nm
[1] = NPDES testing for compliance with the Clean Water Act
Procedure: The testes were performed according to EPA protocols cited in Table 9.

[2] = test system: Syrian hamster embryo (SHE) cells; details: for MT Frequency (%) / RPE (relative plating efficiency): Syrian hamster, 7 day
[3] = test system: MRC5 human lung fibroblast cells; test: Cell Permeability on Live Eukaryotic Cells; format: cell-based; details: 0.5, 1.0, 5.0 and 10.0 μM; 5 minutes at 37° C.; fluorescence microscopy
Procedure: MRC5 human lung fibroblast cells were harvested and grown in complete culture media (DMEM+10% FBS) for one day after seeding coverslips. Cells were then removed from complete media and placed in Hank's balanced salt solution w/sodium bicarbonate (HBSS) supplemented with 5 mM HEPES, 100 uM L-glutamine and 100 uM succinate containing varying concentrations of Compound 1. Concentrations tested included 0.5, 1.0, 5.0 and 10.0 μM. Cells were incubated for 5 minutes at 37° C./[…] Cells were washed 3×30 seconds in HBSS and mounted on microscope slides in HBSS and sealed with paraffin. After mounting, slides were examined on a Nikon Eclipse 800 upright fluorescent microscope and imaged with standard FITC and TRITC filter sets, a Princeton Instrument MicroMax cooled CCD camera, and Universal Imaging MetaMorph imaging software. […] Signal associated with Compound 1 is detectable with both FITC and TRITC filter sets with greater signal intensity using the FITC set. Regardless of concentration, nucleolar labeling seems to be the most prominent and appears to become slightly more prominent at lower concentrations. Off cell background was minimal in all cases.

[4] = Hazardous Waste Screening Test (toxicity to aquatic life); format: in vivo, Pimephakes promelas; details: fathead minnow (Pimephakes promelas), in vivo, other: exposure in tank water containing the compound; fathead minnows; 96 hour exposure
Procedure: (§1) Compound 1 was tested to determine whether or not the compound was hazardous or toxic to aquatic life. Ten fathead minnows (Pimephakes promelas) were placed each in a 8 liter tank containing vehicle control and a concentration of Compound 1 at 250 mg/L, 500 mg/L and 750 mg/L. After a 96 hour exposure period the number of viable minnows were counted. The survival rate of the minnows for the control and Compound 1 was 100%. Thus, compound 1 has a LC50 value […], which is classified as not hazardous under CCR Title 22 acute toxicity to aquatic life.

[5] = test system: fathead minnows (Pimephakes promelas); test: as above; format: in vivo
Procedure: as §1

[6] = test system: Salmonella typhimurium histidine auxotrophs TA97a, TA98, TA100, TA102, TA1535, TA1537 and TA1538; test: Salmonella/Mammalian Microsomal Reverse Mutation Assay (Ames Test); format: cell-based; details: for Ames test mutagenicity classification, early screens: early screens of nucleic acid complexing compounds; for increase in revertants compared to vehicle control (DMSO), TA97a: tester strain TA97a; for increase in revertants compared to vehicle control (DMSO), TA98: tester strain TA98; for increase in revertants compared to vehicle control (DMSO), TA100: tester strain TA100; for increase in revertants compared to vehicle control (DMSO), TA102: tester strain TA102; for increase in revertants compared to vehicle control (DMSO), TA1535: tester strain TA1535; for increase in revertants compared to vehicle control (DMSO), TA1537: tester strain TA1537; for increase in revertants compared to vehicle control (DMSO), TA1538: tester strain TA1538
Procedure: The Ames assay was performed using the method described by Ames (Ames et al Mutation Research 31 (1975) 347-364; Levin et al. PNAS 79 (1982) 7445-7449; Maron and Ames, Mutation Research 113 (1983) 173-215). Tester stains used were Salmonella typhimurium histidine auxotrophs TA97a, TA98, TA100, TA102, TA1535, TA1537 and TA1538. […] The test compounds, test vehicle and S9 (when appropriate) were combined with molten agar and then overlaid over a minimal agar plate. Following incubation at 37° C., revertant colonies were counted. When S9 was not used, 100 μl of tester strain and 50 μl of control or test compound were added to 2.5 ml of selective top agar. When S9 was used, 500 μl of S9 mix, 100 μl of tester strain and 50 μl of control or test compound was added to 2.0 ml of selective top agar. The top agar was then overlaid onto the surface of 25 ml of minimal bottom agar contained in a 15×100 mm Petri dish. The inverted plates were incubated for 52±4 hr at 37±2° C.
The number of revertants was counted and the test compounds were either considered non-mutagenic or mutagenic. The criteria for determining if a test compound was mutagenic was based on a 2-fold increase in mean revertants per plate for at least one tester strain (TA97a, TA98, TA100 and TA102) over the mean revertants per plate of the appropriate vehicle control. For tester strains TA1535, TA1537 and TA 1538 a positive mutant was identified by a 3-fold increase in mean revertants per plate compared to the appropriate vehicle control. In addition, the increase in the mean number of revertants per plate needed to be accompanied by a dose response to increasing concentrations of the test compound. […] Thiazole orange was also considered mutagenic for two of the tester strains in the absence of S9. Thus, compared to ethidium bromide, thiazole orange is 3-4 times less mutagenic and Compound 1 is 4-5 times less mutagenic. Ethidium bromide and Sybr Green I had previously been tested wherein Sybr Green I was considered a weak mutagen (Singer et al. Mutation Research 439 (1999) 37-47).

[7] = test system: cultured human lymphocytes; test: Screening Assay for Chromosomal Aberrations in Cultured Human Peripheral Blood Mononuclear Cells (PBMC); format: cell-based
Procedure: Human venous blood from healthy adult volunteers was drawn in heparinized vacutainers. The whole blood cultures were initiated in 15 ml centrifuge tubes by adding approximately 0.3 ml of fresh heparinized blood into a sufficient volume of culture medium, to that the final volume was 5 mL in the assay with and without metabolic activation after the addition of the test compound. The culture medium was RPMI 1640 supplemented with approximately 20% heat-inactivated fetal bovine serum (FBS), penicillin (100 units/mL), streptomycin (100 μg/mL), L-glutamine (2 mM) and 2% phytohemagglutinin M (PHA-M). The cultures were incubated with loose caps at 37° C.±2° C. in a humidified chamber of approximately 5% CO2 in air.
The in vitro metabolic activation system consisted of a rat liver post-mitochondrial fraction (S9) and an energy-producing system (NADPH plus isocitric acid) (Maron and Ames, 113 Mutation Research (1983) 173-215).
Two days after culture initiation, the cultures were treated with the test compounds. […]
At the end of the incubation period the cultures were centrifuged, the supernatant discarded, and the cells swollen with 75 mM KCl, fixed in methanol:glacial acetic acid (3:1 v/v), dropped onto glass slides and air dried. The slides were stained with 5% Giemsa and air dried and then analyzed for mitotox index, chromosomal aberrations including polyploidy and endoreduplication.

[8] = test system: Syrian hamster embryo (SHE) cells; test: In Vitro Transformation of Syrian Hamster Embryo (SHE) Cells by 7-Day Exposure Screening Assay
[9] = test system: Salmonella typhimurium histidine auxotrophs TA97a, TA98, TA100, TA102, TA1535, TA1537 and TA1538; details: cited from earlier work
[10] = in the presence of S9 (rat liver extract)

SMILES	ability to detect nucleic acid immobilized in a gel by electrophoresis (DNA in a 1% agarose gel)	RPE (relative plating efficiency) ([2]; 0.04 μg/mL) [%]	RPE (relative plating efficiency) ([2]; 0.26 μg/mL) [%]	Ames test mutagenicity classification, early screens [6]	Ames test mutagenicity classification [6, 10]	increase in revertants compared to vehicle control (DMSO), TA97a [6]	increase in revertants compared to vehicle control (DMSO), TA98 [6]	increase in revertants compared to vehicle control (DMSO), TA100 [6]	increase in revertants compared to vehicle control (DMSO), TA102 [6]	increase in revertants compared to vehicle control (DMSO), TA1535 [6]	increase in revertants compared to vehicle control (DMSO), TA1537 [6]	increase in revertants compared to vehicle control (DMSO), TA1538 [6]	further results
CCC[n+]1ccc(/C=C2\Sc3ccccc3N2C)c2ccccc21 [Compound 1]	able to detect nucleic acid	97	25	either mildly mutagenic or non-mutagenic	mild or non-mutagenic; also recorded: Weakly positive	3.3	3.0	1.7	3.7	1.8	1.8	3.7	sensitivity of nucleic acid detection in a gel (DNA in a 1% agarose gel; 1% agarose gel, post-stained 30, 60 and 90 minutes, 1 μM in TBE, 62.5 ng to 30.52 pg DNA): at least as sensitive as ethidium bromide; compliance with the Clean Water Act and NPDES regulations [1]: complies; MT Frequency (%) ([2]; 0.04 μg/mL): 0.731%; MT Frequency (%) ([2]; 0.05 μg/mL): 0.442%; RPE (relative plating efficiency) ([2]; 0.05 μg/mL): 120%; MT Frequency (%) ([2]; 0.2 μg/mL): 0.313%; RPE (relative plating efficiency) ([2]; 0.2 μg/mL): 85%; MT Frequency (%) ([2]; 0.26 μg/mL): 0.294%; MT Frequency (%) ([2]; 0.3 μg/mL): 0.144%; RPE (relative plating efficiency) ([2]; 0.3 μg/mL): 59%; MT Frequency (%) ([2]; 0.4 μg/mL): 1.304%; RPE (relative plating efficiency) ([2]; 0.4 μg/mL): 66%; MT Frequency (%) ([2]; 0.8 μg/mL): 0.635%; RPE (relative plating efficiency) ([2]; 0.8 μg/mL): 28%; cell permeability in live cells [3]: cell permeable; LC50 at 96 h [4]: > 500 µg/mL; survival rate of the minnows ([5]; 250 mg/L, 500 mg/L and 750 mg/L, 96 hour exposure): 100%; hazard classification, acute toxicity to aquatic life ([5]; CCR Title 22): not hazardous; also recorded: non-hazardous to aquatic life; times less mutagenic compared to ethidium bromide ([6]; Ames test): 4-5 times
CC[n+]1c(-c2ccccc2)c2cc(N)ccc2c2ccc(N)cc21 [Ethidium bromide, ethidium bromide]	–	–	–	–	mutagenic	4.4	68.0	1.6	2.0	1.4	15	80	Chromosomal Aberrations Test, cultured human peripheral blood lymphocytes: result ([7]; with and without S9 metabolic activation): negative; RPE (relative plating efficiency) ([8]; 0.200 μg/mL): 85%; RPE (relative plating efficiency) ([8]; 0.400 μg/mL): 66%; RPE (relative plating efficiency) ([8]; 0.800 μg/mL): 28%; Transformation Test, Syrian hamster embryo (SHE) cells: result ([8]; morphological transformation vs vehicle control): positive; Ames test mutagenicity classification (previously tested, literature) ([9]; McCann et al. 1975, Singer et al. 1999): mutagenic
CCCN(CCCN(C)C)c1cc(/C=C2/Sc3ccccc3N2C)c2ccccc2[n+]1-c1ccccc1 [Sybr Green I]	–	–	–	–	–	–	–	–	–	–	–	–	Ames test mutagenicity classification (previously tested, literature) [9]: weak mutagen
CN1C=C/C(=C\c2sc3ccccc3[n+]2C)c2ccccc21 [Thiazole orange, thiazole orange]	able to detect nucleic acid	97	25	either mildly mutagenic or non-mutagenic	mutagenic	6.9	6.4	2.2	4.7	1.5	17.4	7.8	Chromosomal Aberrations Test, cultured human peripheral blood lymphocytes: result [7]: negative; Transformation Test, Syrian hamster embryo (SHE) cells: result [2]: positive; RPE (relative plating efficiency) ([2]; 0.15 μg/mL): 52%; Ames test mutagenicity classification ([6]; in the absence of S9, two of the tester strains): mutagenic
